Results published in patent US8846863B2, “Heat stable protein ingredients” (University of Tennessee Research Foundation, priority 2010, dated 2014).

Assay: Thymol solubility / dispersion in deionized water
Type: physicochemical
Details: suspended at […] in deionized water

Appearance of suspension: showed insoluble particulates
SMILES: Cc1ccc(C(C)C)c(O)c1 [thymol, 2-Isopropyl-5-methylphenol]
